Experiment [1] deals with T1, Peroxisome proliferator-activated receptor gamma (Homo sapiens) (UniProt P37231).
T1 sequence (whole entry): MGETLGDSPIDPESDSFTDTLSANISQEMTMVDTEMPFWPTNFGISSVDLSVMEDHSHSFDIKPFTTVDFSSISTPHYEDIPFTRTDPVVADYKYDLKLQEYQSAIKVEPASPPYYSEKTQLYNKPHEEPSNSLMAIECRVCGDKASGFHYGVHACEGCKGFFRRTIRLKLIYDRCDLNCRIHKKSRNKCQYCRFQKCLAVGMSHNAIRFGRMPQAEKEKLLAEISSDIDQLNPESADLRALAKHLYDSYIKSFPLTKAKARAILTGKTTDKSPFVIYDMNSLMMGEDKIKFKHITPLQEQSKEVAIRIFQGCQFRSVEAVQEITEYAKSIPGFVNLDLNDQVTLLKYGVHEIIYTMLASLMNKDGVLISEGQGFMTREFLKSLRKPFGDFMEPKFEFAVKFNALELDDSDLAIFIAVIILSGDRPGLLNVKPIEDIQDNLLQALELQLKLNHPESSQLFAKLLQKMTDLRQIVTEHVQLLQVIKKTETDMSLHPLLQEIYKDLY
Nature of the experiment: Activity at PPARgamma in human Caco-2 cells assessed as luciferase activity at 50 uM relative to control. In kind it is cell-based.

In experiment [2] the target is T1, Peroxisome proliferator-activated receptor gamma (Homo sapiens). Put plainly: Activity at PPARgamma in human Caco-2 cells assessed as luciferase activity at 1000 uM relative to control. The format is cell-based.
Experiment [3] has the same target. Put plainly: Activity at PPARgamma in human Caco-2 cells assessed as luciferase activity at 100 uM relative to control. The format is cell-based.
Experiment [4] shares this target. Nature of the experiment: Activity at PPARgamma in human Caco-2 cells assessed as luciferase activity at 10000 uM relative to control. The format is cell-based.
Experiment [5] can be described thus: Ratio of IC50 for COX1 to IC50 for COX2.
In experiment [6] the target is T1, Peroxisome proliferator-activated receptor gamma (Homo sapiens). Put plainly: Activity at PPARgamma in human Caco-2 cells assessed as luciferase activity at 400 uM relative to control. In kind it is cell-based.

On to `COc1ccc2c(c1)c(CC(=O)O)c(C)n2C(=O)c1ccc(Cl)cc1`, for which the fold change (FC) in experiment [1] worked out at 6.43. For `CC(C)Cc1ccc(C(C)C(=O)O)cc1` (configuration not stated), in experiment [2], the fold change (FC) turned out to be 5.81. Consider `CC1=C(CC(=O)O)c2cc(F)ccc2/C1=C\c1ccc([S+](C)[O-])cc1` (configuration not stated), for which the fold change (FC) in experiment [3] is 2.51.

Turning to `CN1C(C(=O)Nc2ccccn2)=C(O)c2ccccc2S1(=O)=O`, in experiment [2], the fold change (FC) was 1.92. With `CC(=O)Oc1ccccc1C(=O)O`, the fold change (FC) in experiment [4] was determined as 4.02. As to `CSc1ccc(/C=C2/C(C)=C(CC(=O)O)c3cc(F)ccc32)cc1`, in experiment [5], the Ratio IC50 was 0.258.

Consider `CC1=C(CC(=O)O)c2cc(F)ccc2/C1=C\c1ccc(S(C)(=O)=O)cc1`, for which the fold change (FC) in experiment [6] was 3.33.
